Measured values as given in patent US8716436B2 (priority 2010, dated 2014).
≈ marks a conversion by molar mass, not a printed value. Like-named read-outs stand apart in the source and are kept apart here. Where a SMILES comes first, the peptide text is derived from it.

Tests used:
[1] = Spared nerve injury (SNI) neuropathic pain, Randall-Selitto paw pressure; assay type: in vivo; conditions: rat SNI; for Reversal time of hyperalgesia (significantly above vehicle): intrathecal cumulative doses
[2] = target: human delta opioid receptor (Homo sapiens, UniProt P41143); assay: biochemical; assay type: binding
[3] = tested on: glia; assay: Glial activation (GFAP and phospho-p38 staining) after 1 week of treatment; conditions: rat, after 1 week intrathecal treatment
[4] = target: T1, cloned human mu opioid receptor (Homo sapiens, UniProt P35372); assay: biochemical; assay type: biochemical
T1 construct: expressed in transfected cells

[5] = target: T2, human mu opioid receptor (Homo sapiens, UniProt P35372); assay: biochemical; assay type: binding
T2 construct: expressed in transfected cells; host or cells: CHO cells

[6] = Solubility; assay type: physicochemical
Experimental: The solubility of the peptides of Formula I (e.g., in saline or physiologic buffer) typically is enhanced relative to the prior art tetrapeptide analogs of the endomorphins Addition of a hydrophilic amino acid and amidated C-terminus to the relatively hydrophobic tetrapeptide sequences Tyr-cyclo[D-Lys-Trp-Phe] (SEQ ID NO:10) and Tyr-cyclo[D-Lys-Phe-Phe] […] For example, Compound 1 was soluble in water, saline and 20% PEG/saline at about 43, 21 and 90 mg/mL, respectively, compared to less than about 2 mg/mL for the previously described compounds. While increases in solubility are associated with improved pharmaceutical delivery properties, higher solubility is also often associated with reduced functional activity (e.g., receptor binding) that may depend on lipophilicity.

[7] = Tail-flick (TF) antinociception after i.v. administration; assay type: in vivo; conditions: rat; for Antinociception (tail-flick): i.v., 5.6 mg/kg
[8] = target: T3, cloned human delta opioid receptor (Homo sapiens, UniProt P41143); assay: biochemical
T3 construct: expressed in transfected cells

[9] = target: T3, cloned human delta opioid receptor; assay: 35S-GTPγS functional assay, delta antagonism against ED80 dose of SNC80; assay type: biochemical; conditions: for Delta Antagonist efficacy: against ED80 dose of SNC80
[10] = Rotorod test of motor coordination; conditions: rat, cumulative i.v. doses
[11] = Tolerance: intrathecal cumulative dose-response in tail-flick test before and after 1 week osmotic minipump; assay type: in vivo; conditions: rat; for ED50 antinociception on Day 7 after minipump implantation: morphine 2 μg/hr or analog 0.056 μg/hr for about 7 days; for ED50 antinociception in opioid naïve animals: before minipump
[12] = Morris Water Maze (spatial memory); conditions: rat, after 4 days of training
[13] = Conditioned place preference (CPP); conditions: rat, i.v., doses producing maximal antinociception
[14] = rat
[15] = target: human kappa opioid receptor (Homo sapiens, UniProt P41145); assay: biochemical; assay type: binding
[16] = target: cloned human kappa opioid receptor (Homo sapiens, UniProt P41145); assay: biochemical
cloned human kappa opioid receptor, sequence (P41145 whole entry): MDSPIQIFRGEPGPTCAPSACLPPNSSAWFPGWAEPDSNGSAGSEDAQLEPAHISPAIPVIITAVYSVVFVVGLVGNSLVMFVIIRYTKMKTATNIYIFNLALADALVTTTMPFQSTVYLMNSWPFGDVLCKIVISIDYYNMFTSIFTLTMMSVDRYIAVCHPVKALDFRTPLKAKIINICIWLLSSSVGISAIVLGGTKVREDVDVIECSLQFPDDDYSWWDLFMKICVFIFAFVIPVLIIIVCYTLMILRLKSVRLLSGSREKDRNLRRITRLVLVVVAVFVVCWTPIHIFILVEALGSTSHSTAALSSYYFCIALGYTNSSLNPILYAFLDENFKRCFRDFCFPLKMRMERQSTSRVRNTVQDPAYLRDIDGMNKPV

T2 sequence (P35372 whole entry): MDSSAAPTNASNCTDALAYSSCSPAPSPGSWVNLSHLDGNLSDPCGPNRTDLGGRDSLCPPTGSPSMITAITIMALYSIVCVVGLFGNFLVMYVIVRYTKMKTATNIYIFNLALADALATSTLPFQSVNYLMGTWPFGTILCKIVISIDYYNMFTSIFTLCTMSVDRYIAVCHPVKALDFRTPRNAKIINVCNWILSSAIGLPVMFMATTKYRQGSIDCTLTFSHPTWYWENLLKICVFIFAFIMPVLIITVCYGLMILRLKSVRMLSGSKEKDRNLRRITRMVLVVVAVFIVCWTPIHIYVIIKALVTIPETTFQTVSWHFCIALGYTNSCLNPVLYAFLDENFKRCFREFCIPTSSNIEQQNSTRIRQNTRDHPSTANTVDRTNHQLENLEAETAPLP
T1 sequence (P35372 whole entry): as above
human kappa opioid receptor, sequence (P41145 whole entry): as the sequence (P41145 whole entry) above
T3 sequence (P41143 whole entry): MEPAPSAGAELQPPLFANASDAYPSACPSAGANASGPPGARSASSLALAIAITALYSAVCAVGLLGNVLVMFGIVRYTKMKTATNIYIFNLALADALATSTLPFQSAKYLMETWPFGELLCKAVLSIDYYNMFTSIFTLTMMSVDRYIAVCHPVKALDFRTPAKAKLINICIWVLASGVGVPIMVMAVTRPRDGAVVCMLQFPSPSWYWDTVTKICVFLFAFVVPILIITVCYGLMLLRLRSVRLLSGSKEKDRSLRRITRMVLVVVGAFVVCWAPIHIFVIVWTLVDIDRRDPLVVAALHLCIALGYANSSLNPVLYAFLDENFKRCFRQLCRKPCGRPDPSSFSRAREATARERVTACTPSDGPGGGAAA
human delta opioid receptor, sequence (P41143 whole entry): as above

Compound: NC(=O)[C@@H]1CCC(=O)NCCCC[C@@H](NC(=O)[C@@H](N)Cc2ccc(O)cc2)C(=O)N[C@@H](Cc2c[nH]c3ccccc23)C(=O)N[C@@H](Cc2ccccc2)C(=O)N1 [Compound 1, Tyr-c[D-Lys-Trp-Phe-Glu]-NH2]
- Time at which scores were significantly above those of morphine ([1]; intrathecal): 155 to 215 min
- Ki [2]: 132 nM
- Glial activation (integrated density of GFAP and pp38 staining) [3]: activation was not significantly different from vehicle
- Agonist EC50 mu [4]: significantly greater potency than the reference compound, DAMGO
- Agonist efficacy at the mu receptor [4]: full efficacy agonist
- EC50 [4]: 0.15 nM
- Ki [5]: 0.49 nM
- solubility ([6]; 20% PEG/saline, read-out: Solubility in 20% PEG/saline): ~90 mg/mL (≈ 120 mM)
- solubility ([6]; saline, read-out: Solubility in saline): ~21 mg/mL (≈ 27.9 mM)
- solubility ([6]; water, read-out: Solubility in water): ~43 mg/mL (≈ 57.1 mM)
- Antinociception (TF) relative to morphine ([7]; cumulative doses, about 140 to 180 minutes after injection): greater antinociception
- Antinociception (tail-flick) [7]: antinociception similar to the 10 mg dose of morphine
- EC50 [8]: > 100000 nM
- IC50 [9]: 105 nM
- Delta Antagonist efficacy [9]: full efficacy delta antagonism
- Delta Antagonist efficacy ([9]; listed as Comp. 1): 93

Compound: NC(=O)[C@@H]1CCCCNC(=O)CC[C@@H](NC(=O)[C@@H](N)Cc2ccc(O)cc2)C(=O)N[C@@H](Cc2ccccc2)C(=O)N[C@@H](Cc2ccccc2)C(=O)N1 [Compound 2, Tyr-c[D-Glu-Phe-Phe-Lys]-NH2]
- Motor impairment (rotorod) [10]: significantly less than that of morphine
- Reversal time of hyperalgesia (significantly above vehicle) [1]: ~260 min
- Shift in ED50 (tolerance) ([11]; after 1 week minipump): about 8.5 fold
- ED50 antinociception on Day 7 after minipump implantation [11]: about 0.11±0.02 μg
- Potency relative to morphine on a molar basis ([11]; tail-flick): about 40 fold
- ED50 antinociception in opioid naïve animals ([11]; tail-flick): 0.01 µg
- Impairment of spatial memory (latency to and distance from platform) [12]: did not produce significant impairment
- Ki [2]: 69 nM
- Glial activation (integrated density of GFAP and pp38 staining) [3]: activation was not significantly different from vehicle
- EC50 [4]: 0.99 nM
- Ki [5]: 0.73 nM
- Antinociception (TF latency) relative to morphine ([7]; cumulative i.v. doses, at 135 and 155 minutes): significantly longer antinociception
- Antinociception (tail-flick) [7]: antinociception similar to the 10 mg dose of morphine
- EC50 [8]: > 100000 nM
- IC50 [9]: 2750 nM
- Delta Antagonist efficacy [9]: 51
- Conditioned place preference (time spent on the drug side) [13]: no significant CPP

Compound: NC(=O)[C@@H]1CC(=O)NCCCC[C@@H](NC(=O)[C@@H](N)Cc2ccc(O)cc2)C(=O)N[C@@H](Cc2c[nH]c3ccccc23)C(=O)N[C@@H](Cc2ccccc2)C(=O)N1 [Compound 5, Tyr-c[D-Lys-Trp-Phe-Asp]-NH2]
- Ki [2]: 140 nM
- Glial activation (integrated density of GFAP and pp38 staining) [3]: activation was not significantly different from vehicle
- EC50 [4]: 0.22 nM
- Ki [5]: 0.43 nM
- EC50 [8]: > 100000 nM
- IC50 [9]: 557 nM
- Delta Antagonist efficacy [9]: 100
- Conditioned place preference (time spent on the drug side) [13]: no significant CPP

Compound: CN1CC[C@]23c4c5ccc(O)c4O[C@H]2[C@@H](O)C=C[C@H]3[C@H]1C5 [Morphine, morphine, reference compound]
- Motor impairment (rotorod) [10]: significantly above that of vehicle controls
- Dose required to fully (100%) reverse hyperalgesia ([1]; intrathecal): about 1.14 μg
- Reversal time of hyperalgesia (significantly above vehicle) [1]: about 80 min
- ED50 antinociception on Day 7 after minipump implantation [11]: 16 ± 3.3 µg
- ED50 antinociception in opioid naïve animals ([11]; tail-flick): 0.253 µg
- Impairment of spatial memory (latency to and distance from platform) [12]: produced impairment of spatial memory
- Glial activation (integrated density of GFAP and pp38 staining) [3]: produced significant glial activation
- Self-administration [14]: resulted in significant self-administration
- Conditioned place preference (time spent on the drug side) [13]: increase in the time spent on the drug side

Compound: N[C@@H](Cc1ccc(O)cc1)C(=O)N[C@@H]1CCCCNC(=O)[C@H](Cc2ccccc2)NC(=O)[C@H](Cc2c[nH]c3ccccc23)NC1=O [ck1, Tyr-c[D-Lys-Trp-Phe], reference compound] (HELM PEPTIDE1{Y.[dK].W.F}$PEPTIDE1,PEPTIDE1,2:R3-4:R2$$$V2.0; bridges inferred)
- Ki [15]: 35 nM
- Selectivity Kappa/Mu (binding) [15]: 111
- Ki [2]: 28 nM
- Selectivity Delta/Mu (binding) [2]: 90
- EC50 [4]: 0.21 nM
- Ki [5]: 0.32 nM
- EC50 [16]: 470 nM
- Selectivity kappa/mu (activation) [16]: 2236
- EC50 [8]: 138 nM
- Selectivity delta/mu (activation) [8]: 658

Compound: N[C@@H](Cc1ccc(O)cc1)C(=O)N[C@@H]1CCCCNC(=O)[C@H](Cc2ccccc2)NC(=O)[C@H](Cc2ccccc2)NC1=O [ck2, Tyr-c[D-Lys-Phe-Phe], reference compound] (HELM PEPTIDE1{Y.[dK].F.F}$PEPTIDE1,PEPTIDE1,2:R3-4:R2$$$V2.0; bridges inferred)
- Ki [15]: 12 nM
- Selectivity Kappa/Mu (binding) [15]: 33
- Ki [2]: 3 nM
- Selectivity Delta/Mu (binding) [2]: 9
- EC50 [4]: 0.15 nM
- Ki [5]: 0.36 nM
- EC50 [16]: 206 nM
- Selectivity kappa/mu (activation) [16]: 1374
- EC50 [8]: 7 nM
- Selectivity delta/mu (activation) [8]: 44

Compound: Tyr-c[D-Lys-Trp-Phe-Glu]-Gly-NH2 [Compound 3]
- Delta Antagonist efficacy [9]: full efficacy delta antagonism
